Measured values reported in the supplement of paper PMC10307832.

Columns and labels:
Assay in all cases: relative viability (nuclei count vs DMSO), 5 days (fraction); higher = more cells survive
[1] = compound: CC(C)N(CCCNC(=O)Nc1ccc(C(C)(C)C)cc1)C[C@H]1O[C@@H](n2ccc3c(N)ncnc32)[C@H](O)[C@@H]1O + Cc1cc(Nc2cc(N3CCN(C)CC3)nc(Sc3ccc(NC(=O)C4CC4)cc3)n2)n[nH]1 [Tozasertib] (partner 0.1 µM)
Method in brief: (§1)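 Lung cancer cell lines in 1536-well plates got either a single drug or a fixed anchor-drug dose together with five library-drug doses (not always all listed) in √10 steps, by pin tool, on the day after seeding. Nuclei were counted after 5 days, and relative viability is the treated-to-vehicle ratio of nuclei counts. Values are medians of duplicate plates.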

[2] = compound: CC(C)N(CCCNC(=O)Nc1ccc(C(C)(C)C)cc1)C[C@H]1O[C@@H](n2ccc3c(N)ncnc32)[C@H](O)[C@@H]1O + CC(=O)Nc1cccc(-n2c(=O)n(C3CC3)c(=O)c3c(Nc4ccc(I)cc4F)n(C)c(=O)c(C)c32)c1 [Trametinib] (partner 0.02 µM)
Method in brief: as §1

[3] = compound: CC(C)N(CCCNC(=O)Nc1ccc(C(C)(C)C)cc1)C[C@H]1O[C@@H](n2ccc3c(N)ncnc32)[C@H](O)[C@@H]1O + Nc1ncn([C@H]2C[C@H](O)[C@@H](CO)O2)c(=O)n1 [Decitabine] (partner 2 µM)
Method in brief: as §1

Shikonin + Crizotinib = compound: CC(C)=CC[C@@H](O)C1=CC(=O)c2c(O)ccc(O)c2C1=O [Shikonin] + C[C@@H](Oc1cc(-c2cnn(C3CCNCC3)c2)cnc1N)c1c(Cl)ccc(F)c1Cl [Crizotinib] (partner 1 µM)
Method in brief: as §1

Cell Line: UMC-11
- relative viability ([1]; first compound 0.08 µM): 0.185
- relative viability ([1]; first compound 0.253 µM): 0.193
- relative viability ([1]; first compound 0.8 µM): 0.231
- relative viability ([1]; first compound 2.53 µM): 0.218
- relative viability ([1]; first compound 8 µM): 0.175
- relative viability ([2]; first compound 0.08 µM): 0.691
- relative viability ([2]; first compound 0.253 µM): 0.541
- relative viability ([2]; first compound 0.8 µM): 0.588
- relative viability ([2]; first compound 2.53 µM): 0.789
- relative viability ([2]; first compound 8 µM): 0.796
- relative viability ([3]; first compound 0.08 µM): 0.584
- relative viability ([3]; first compound 0.253 µM): 0.621
- relative viability ([3]; first compound 0.8 µM): 0.488
- relative viability ([3]; first compound 2.53 µM): 0.534
- relative viability ([3]; first compound 8 µM): 0.585
- relative viability (Shikonin + Crizotinib; first compound 0.01 µM): 0.745
- relative viability (Shikonin + Crizotinib; first compound 0.1 µM): 0.559
- relative viability (Shikonin + Crizotinib; first compound 0.3162 µM): 0.658
- relative viability (Shikonin + Crizotinib; first compound 1 µM): 0.633
